System: human KRAS G12C mutated cell line MIA PaCa-2
Test: Inhibition of proliferation of MIA PaCa-2 cells (CellTiter-Glo, 7 day)
Assay type: cell-based
Details: 168 h, Table 4, 7 day, mean, read-out: MIA PaCa-2 IC50 (μM) 7 day Mean
Summary of the method: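 MIA PaCa-2 cells (RPMI-1640, 10% FBS) seeded at about 1000 cells/well; eight compound concentrations in duplicate added 2 h later, with media and compound refreshed on day 3. ATP-luminescence viability read on day 7 by CellTiter-Glo; % inhibition relative to 0.2% DMSO control.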

| SMILES | IC50 [µM] |
| --- | --- |
| Oc1cc(-c2ncc3c(C4CC5CCC(C4)N5)nc(OC[C@@]45CCCN4C[C@H](F)C5)nc3c2F)c2c(F)c(F)ccc2c1 (stereo partly drawn) [Compound 443, 4-[4-(8-azabicyclo[3.2.1]octan-3-yl)-8-fluoro-2-[[(2R,8S)-2-fluoro-1,2,3,5,6,7-hexahydropyrrolizin-8-yl]methoxy]pyrido[4,3-d]pyrimidin-7-y1]-5,6-difluoro-naphthalen-2-ol] | > 1 |
| CC1(c2nc(OC[C@@]34CCCN3C[C@H](F)C4)nc3c(F)c(-c4cc(O)cc5ccc(F)c(F)c45)ncc23)CCNCC1 [Compound 444] | 6.74 |

Reference: patent US20240409558A1, “IRREVERSIBLE INHIBITORS OF KRAS” (BIOMEA FUSION, INC., priority 2021, published 2024)
